# Source: patent publication US20080171729A1, “Use Of A Steroid For Enhancement Of Skin Permeability” (Novartis AG, priority 2004, published 2008)
# Assay: Skin penetration/permeation assay in static Franz-type diffusion cells, untreated or corticosteroid pre-treated split-thickness skin
# Assay type: in vitro ADME, domestic pigs
# Experimental: Three young, male castrated domestic pigs with body weights of approximately 15 kg are used as skin donors. The animals are obtained from a local breeder and maintained under standardized conditions (22±1°, 55±5% relative humidity, 10 changes of fresh air/hour, 12 hours day/12 hours night cycle). After a settling-in period of 7 days the pigs are treated topically on test areas on the dorsolateral back • with CS solutions in EtOH/propylene glycol (3+7, v/v) as a solvent, and • contra-laterally with solvent alone, twice daily for 5 days. HC (Sigma) at 1.0%, MOM (Sequoia Research Products) at 0.1% and CLO (Sigma) at 0.05% are used as CS. The CS-samples and solvent alone are applied in volumes of 50 μl to skin areas of 3.5×6.5 cm each. All three CS and solvent alone are applied to all animals. 16 hours after the last application the animals are killed and the treated skin samples are dissected. Full-thickness skin samples are dissected from vehicle- and CS-treated sites and cut into 0.4 mm split-thickness skin samples with a dermatome (Aesculap®). The samples include the epidermal layers and the superficial part of the dermis but no deep dermal layers and no subcutaneous fat. […] Schmook F B, Stütz A, Reinhardt J, Skin Pharmacol 1993; 6: 116-124. PBS/EtOH 3:1 is used as receptor phase. All experiments are performed at 32° in triplicates for 48 hours. Test compounds are applied to the epidermal side of the skin samples in their marketed formulations, i.e. Elidel® 1% cream (pimecrolimus) and Protopic® 0.1% ointment (tacrolimus), each in amounts of 300 mg. Samples of 100 μl are taken from the receptor phase at 5 time points during the 48-hours experiment and replaced by fresh receptor fluid. After addition of an internal standard (ASD732, see e.g. EP569337) the samples are directly analyzed by RPLC using MS-based detection. […] Specimens from the stripped skin are taken with a biopsy punch, weighed and then homogenized in 0.1 M sodium phosphate buffer, pH 7. Following addition of an internal standard (ASD732) and buffer of pH 10 to the homogenates, extraction is performed with tert-butyl methylether. Solvent from each extract obtained is evaporated, each residue obtained is redissolved and subjected to analysis by RPLC using MS-based detection. Receptor fluid samples are analyzed by RP-HPLC with MS detection in ESI positive mode (LC-MS/MS analysis). The MS/MS mode is used to increase selectivity. LC-MS/MS analysis is carried out with an Agilent 1100 Series Capillary LC System coupled to a Finnigan LCQ mass spectrometer. A Phenomenex Luna C18(2) column (3 μm, 100×2 mm) equipped with a precolumn is used and eluted isocratically with a flow rate of 100 μl/minute at 60°. The effluent is delivered unsplit to the ESI ion-source. Under the chromatographic conditions used, all compounds tested yield a strong sodium adduct. For MS/MS parent ions are selected. The quantification of the parent ions is based on the area ratio of the fragment ions to the fragment ion of the internal standard.
# [1] = pre-treated skin compared with untreated skin
Structure (SMILES),permeation rate increased by factor (CLO pre-treatment compared with untreated skin),permeation rate increased by factor (HC-pre-treatment compared with untreated skin),permeation rate increased by factor (MOM pre-treatment compared with untreated skin),skin penetration (skin concentration) enhanced [1],"permeation rate of tacrolimus in comparison with pimecrolimus, times higher (CLO-pretreated skin)","permeation rate of tacrolimus in comparison with pimecrolimus, times higher (HC-pre-treated skin)","permeation rate of tacrolimus in comparison with pimecrolimus, times higher (MOM-pre-treated skin)","permeation rate increased by factors (corticosteroid pretreated samples (range over HC, MOM, CLO) compared with untreated skin)","skin penetration (skin concentration) enhanced, in words [1]","permeation rate of tacrolimus in comparison with pimecrolimus, times higher (untreated skin)"
CC[C@@H]1/C=C(\C)C[C@H](C)C[C@H](OC)[C@H]2O[C@@](O)(C(=O)C(=O)N3CCCC[C@H]3C(=O)O[C@H](/C(C)=C/[C@@H]3CC[C@H](Cl)[C@H](OC)C3)[C@H](C)[C@@H](O)CC1=O)[C@H](C)C[C@@H]2OC [pimecrolimus],4.1,3.8,2.9,at least 10%,,,,,,
C=CC[C@@H]1/C=C(\C)C[C@H](C)C[C@H](OC)[C@H]2O[C@@](O)(C(=O)C(=O)N3CCCC[C@H]3C(=O)O[C@H](/C(C)=C/[C@@H]3CC[C@H](O)[C@H](OC)C3)[C@H](C)[C@@H](O)CC1=O)[C@H](C)C[C@@H]2OC [tacrolimus],,,,,3.5,5.9,7.1,1.3-1.9,not significantly,11.2
